According to patent EP4603105A1, “PHARMACEUTICAL COMPOSITION CONTAINING CYCLIC COMPOUND HAVING SELECTIVE KRAS INHIBITORY EFFECT AGAINST HRAS AND NRAS” (CHUGAI SEIYAKU KABUSHIKI KAISHA, priority 2022, dated 2024):
*1 amine or outer side, *2 acyl side, *3 side chain or, on linkers, in order; H or OH if unused. Where a SMILES comes first, the peptide text is derived from it. Bridges are numbered along the chain shown (N, C = ends). [ ]: non-standard residue; d: D form. The star is where a group is joined. X6 = CC(C)(C)CCN([C@@H](Cc1ccc(C(F)(F)F)cc1)C(=O)[*:2])[*:1]; hPhe(3-Cl-4-CF3) = N[C@@H](CCc1ccc(C(F)(F)F)c(Cl)c1)C(=O)O; NPrPhe(4-CF3) = CCCN[C@@H](Cc1ccc(C(F)(F)F)cc1)C(=O)O; NMeGly(cPent) = CN[C@H](C(=O)O)C1CCCC1; Gly(cPent) = N[C@H](C(=O)O)C1CCCC1; NMeD = CN[C@@H](CC(=O)O)C(=O)O; NMeL = CN[C@@H](CC(C)C)C(=O)O; Morpholide = C1CN(*)CCO1; Ac5c = NC1(C(=O)O)CCCC1; Aze = O=C(O)[C@@H]1CCN1; Sar = CNCC(=O)O

Columns and labels:
[1] = tested on: human lung cancer strain NCI-H441; format: cell-based
Method in brief: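 Readout: […] after the ATP-based reagent. Compound: serial dilutions in dimethyl sulfoxide.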

[2] = target: GDP-bound NRAS wild-type protein (Homo sapiens, UniProt P01111); experiment: Binding to NRAS by surface plasmon resonance (SPR), KD and KD ratio to KRAS
Method in brief: (§1)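 GDP-loaded biotinylated Avi-tag RAS proteins (E. coli-expressed) captured on a Biotin CAPture chip at ~100–300 RU; single-cycle kinetics at 30°C, 100 µL/min, 75 s injections of rising compound concentrations. HBS pH 7.4 running buffer with 1 mM DTT, 10 mM MgCl2, 10 µM GDP, 4% DMSO. KD from 1:1 binding fit.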

HRAS wild-type protein = HRAS wild-type protein (Homo sapiens, UniProt P01112); experiment: Binding to HRAS by surface plasmon resonance (SPR), KD and KD ratio to KRAS
Method in brief: as §1

[3] = target: GDP-bound KRAS wild-type protein (Homo sapiens, UniProt P01116); experiment: Binding to KRAS by surface plasmon resonance (SPR), dissociation constant KD
Method in brief: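 Captured GDP-RAS (~100–300 RU) was exposed to increasing compound concentrations, 75 s per step, in running buffer with 10 µM GDP, 10 mM MgCl2 and 4% DMSO at pH 7.4.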

[4] = ratio of KD for GDP-bound NRAS wild-type protein to KD for KRAS
[5] = ratio of KD for HRAS wild-type protein to KD for KRAS
[6] = ratio of the KD value with respect to GDP-bound NRAS wild-type protein to the KD value with respect to KRAS
[7] = ratio of the KD value with respect to HRAS wild-type protein to the KD value with respect to KRAS
[8] = Single Cycle Kinetics, 1:1 binding model
[9] = ratio of KD value for GDP-bound NRAS wild-type protein to KD value for KRAS (SPR)
[10] = ratio of KD value for HRAS wild-type protein to KD value for KRAS (SPR)

GDP-bound NRAS wild-type protein, sequence (P01111 whole entry): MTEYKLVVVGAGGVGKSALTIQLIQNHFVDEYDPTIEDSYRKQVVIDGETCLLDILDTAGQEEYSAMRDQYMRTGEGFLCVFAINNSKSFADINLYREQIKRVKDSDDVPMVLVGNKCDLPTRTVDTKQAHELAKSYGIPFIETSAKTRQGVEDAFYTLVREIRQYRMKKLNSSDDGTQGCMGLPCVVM
HRAS wild-type protein, sequence (P01112 whole entry): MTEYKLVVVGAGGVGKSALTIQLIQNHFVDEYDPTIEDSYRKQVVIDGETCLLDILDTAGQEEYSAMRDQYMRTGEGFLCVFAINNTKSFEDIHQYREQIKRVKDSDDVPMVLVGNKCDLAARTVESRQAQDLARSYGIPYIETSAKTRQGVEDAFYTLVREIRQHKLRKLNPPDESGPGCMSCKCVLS
GDP-bound KRAS wild-type protein, sequence (P01116 1-188 isoform P01116-2): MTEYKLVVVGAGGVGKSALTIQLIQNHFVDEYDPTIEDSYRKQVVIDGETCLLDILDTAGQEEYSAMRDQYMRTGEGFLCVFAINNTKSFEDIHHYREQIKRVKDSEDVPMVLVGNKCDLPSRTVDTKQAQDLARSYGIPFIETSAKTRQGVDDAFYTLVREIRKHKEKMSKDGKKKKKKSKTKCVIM

SMILES	IC50 [1] [nM]	NRAS /KRAS [2, 4]	HRAS /KRAS (HRAS wild-type protein; [5])	Kd ([3]; 1:1 binding model) [nM]	NRAS /KRAS [2, 6]	HRAS /KRAS (HRAS wild-type protein; [7])	Kd [3, 8] [nM]	Kd ([3]; Single Cycle Kinetics) [nM]	NRAS /KRAS [2, 9]	HRAS /KRAS (HRAS wild-type protein; [10])
CCCN1C(=O)CN(C)C(=O)[C@@H]2CCN2C(=O)[C@H](C2CCCC2)NC(=O)[C@H](CC(C)C)N(C)C(=O)C[C@@H](C(=O)N2CCOCC2)N(C)C(=O)[C@H](C2CCCC2)N(C)C(=O)C2(CCCC2)NC(=O)[C@@H]2CCCN2C(=O)[C@H](CCc2ccc(C(F)(F)F)c(Cl)c2)NC(=O)CN(C)C(=O)[C@@H]1Cc1ccc(C(F)(F)F)cc1 [PP0306] ([NMeL][Gly(cPent)][Aze][Sar][NPrPhe(4-CF3)][Sar][hPhe(3-Cl-4-CF3)]P[Ac5c][NMeGly(cPent)][NMeD]-Morpholide; lactam N-11)	142	B (a compound having 3 or more and less than 10 is denoted as B)	B (a compound having 3 or more and less than 10 is denoted as B)	1.2						
CCC[C@H]1C(=O)N[C@@H]([C@@H](C)CC)C(=O)N(C)CC(=O)N(C)[C@H]2C/C=C\CCN(C2=O)[C@@H](CC2CCCCC2)C(=O)N(C)CC(=O)N[C@@H](CCc2ccc(C(F)(F)F)c(OC)c2)C(=O)N2C[C@H](OCC)C[C@H]2C(=O)N(C)C2(CCC2)C(=O)N(C)[C@@H](C(CC)CC)C(=O)N(C)[C@H](C(=O)N(C)C)CC(=O)N1C [PP2333]	44.7				A (a compound having 10 or more and less than 20 is denoted as A)	A (a compound having 10 or more and less than 20 is denoted as A)	1.9			
CCCC[C@H]1C(=O)N[C@@H]([C@@H](C)CC)C(=O)N(C)CC(=O)N(C)[C@H]2C/C=C\CCN(C2=O)[C@@H](Cc2ccc(C(F)(F)F)cc2)C(=O)N(C)CC(=O)N[C@@H](CCc2ccc(C(F)(F)F)cc2Cl)C(=O)N2C[C@H](F)C[C@H]2C(=O)NC2(CC(C)(C)C2)C(=O)N(C)[C@@H](C2CCC2)C(=O)N(C)[C@H](C(=O)N(C)C)CC(=O)N1C [PP3124]	39	A (a compound having 10 or more and less than 20 is denoted as A)	A (a compound having 10 or more and less than 20 is denoted as A)	1.1						
CCO[C@@H]1C[C@H]2C(=O)N(C)C3(CC(C)(C)C3)C(=O)N(C)[C@@H](C(CC)CC)C(=O)N(C)[C@H](C(=O)N(C)C)CC(=O)N(C)[C@@H](COC)C(=O)N[C@@H]([C@@H](C)CC)C(=O)N(C)CC(=O)N(C)[C@H]3C/C=C\CCN(C3=O)[C@@H](Cc3ccc(C)cc3)C(=O)N(C)CC(=O)N[C@@H](CCc3ccc(Cl)c(Cl)c3)C(=O)N2C1 [PP2810]	38.1	AA (a compound having 20 or more is denoted as AA)	A (a compound having 10 or more and less than 20 is denoted as A)	0.46						
CCCN(C)C(=O)[C@@H]1CC(=O)N(C)[C@@H](CC(C)C)C(=O)N[C@@H]([C@@H](C)CC)C(=O)N(C)CC(=O)N(C)[C@H]2C/C=C\CCN(C2=O)[C@@H](Cc2ccc(C(F)(F)F)cc2)C(=O)N(C)CC(=O)N[C@@H](CCc2cc(F)c(C(F)(F)F)c(F)c2)C(=O)N2C[C@H](OCC)C[C@H]2C(=O)NC2(COC2)C(=O)N(C)[C@@H](C2CCCC2)C(=O)N1C [PP1938]	34.6				AA (a compound having 20 or more is denoted as AA)	A (a compound having 10 or more and less than 20 is denoted as A)	0.34			
CCC[C@H]1C(=O)N[C@@H](C2CCCC2)C(=O)N(C)CC(=O)N(C)[C@H]2C/C=C\CCN(C2=O)[C@@H](Cc2ccc(C)cc2)C(=O)N(C)CC(=O)N[C@@H](CCc2cc(F)c(C(F)(F)F)c(F)c2)C(=O)N2C[C@H](OCC)C[C@H]2C(=O)NC2(CC(C)(C)C2)C(=O)N(C)[C@@H](C2CCCC2)C(=O)N(C)[C@H](C(=O)N(C)C)CC(=O)N1C [PP2988]	8.1	B (a compound having 3 or more and less than 10 is denoted as B)	B (a compound having 3 or more and less than 10 is denoted as B)	0.29						
CCO[C@@H]1C[C@H]2C(=O)NC3(CC(C)(C)C3)C(=O)N(C)[C@@H](C3CCCC3)C(=O)N(C)[C@H](C(=O)N(C)CC)CC(=O)N(C)[C@@H](CC(C)C)C(=O)N[C@@H]([C@@H](C)CC)C(=O)N(C)CC(=O)N(C)[C@H]3C/C=C\CCN(C3=O)[C@@H](Cc3ccc(C(F)F)cc3)C(=O)N(C)CC(=O)N[C@@H](CCc3ccc(C4CC4)c(F)c3)C(=O)N2C1 [PP3154]	26.2	A (a compound having 10 or more and less than 20 is denoted as A)	A (a compound having 10 or more and less than 20 is denoted as A)	0.53						
CCO[C@@H]1C[C@H]2C(=O)NC3(CC(C)(C)C3)C(=O)N(C)[C@@H](C3CCCC3)C(=O)N(C)[C@H](C(=O)N(C)C)CC(=O)N(C)[C@@H]([C@@H](C)OC)C(=O)N[C@@H]([C@@H](C)CC)C(=O)N(C)CC(=O)N(C)[C@H]3C/C=C\CCN(C3=O)[C@@H](Cc3ccc(C)cc3)C(=O)N(C)CC(=O)N[C@@H](CCc3cc(F)c(C(F)(F)F)c(F)c3)C(=O)N2C1 [PP3208]	2.8	A (a compound having 10 or more and less than 20 is denoted as A)	A (a compound having 10 or more and less than 20 is denoted as A)	0.076						
CCO[C@@H]1C[C@H]2C(=O)NC3(CCC3)C(=O)N(C)[C@@H]([C@H](C)CC)C(=O)N(C)[C@H](C(=O)N3CCOCC3)CC(=O)N(C)[C@@H](CC(C)C)C(=O)N[C@@H]([C@@H](C)CC)C(=O)N(C)CC(=O)N(C)[C@H]3CCCCCN(C3=O)[C@@H](Cc3ccc(C(F)(F)F)cc3)C(=O)N(C)CC(=O)N[C@@H](CCc3cc(F)c(C(F)(F)F)c(F)c3)C(=O)N2C1 [PP0821]	250	A (a compound having 10 or more and less than 20 is denoted as A)	B (a compound having 3 or more and less than 10 is denoted as B)					2		
CC[C@H](C)[C@@H]1NC(=O)[C@H](COC)N(C)C(=O)C[C@@H](C(=O)N2CCOCC2)N(C)C(=O)[C@H](C2CCCC2)N(C)C(=O)C2(CCC2)NC(=O)[C@@H]2CC(F)(F)CN2C(=O)[C@H](CCc2cc(F)c(C(F)(F)F)c(F)c2)NC(=O)CN(C)C(=O)[C@H](Cc2ccc(C(F)(F)F)cc2)N2CCCCC[C@@H](C2=O)N(C)C(=O)CN(C)C1=O [PP0834]	13.6	A (a compound having 10 or more and less than 20 is denoted as A)	B (a compound having 3 or more and less than 10 is denoted as B)					0.19		
CCO[C@@H]1C[C@H]2C(=O)NC3(CCC3)C(=O)N(C)[C@@H](C3CCCC3)C(=O)N(C)[C@H](C(=O)N(C)C)CC(=O)N(C)[C@@H](CC3CCCC3)C(=O)N[C@@H]([C@@H](C)CC)C(=O)N(C)CC(=O)N(C)[C@H]3C/C=C\CCN(C3=O)[C@@H](Cc3ccc(C)cc3)C(=O)N(C)CC(=O)N[C@@H](CCc3ccc(CC)c(F)c3)C(=O)N2C1 [PP2686]	162	A (a compound having 10 or more and less than 20 is denoted as A)	A (a compound having 10 or more and less than 20 is denoted as A)	3.3						
CC[C@H](C)[C@@H]1NC(=O)[C@H](CC(C)C)N(C)C(=O)C[C@@H](C(=O)N(C)C)N(C)C(=O)[C@H](C2CCCC2)N(C)C(=O)C2(CCC2)NC(=O)[C@@H]2C[C@H](C)CN2C(=O)[C@H](CCc2ccc(C(F)(F)F)c(OC)c2)NC(=O)CN(C)C(=O)[C@H](Cc2ccc(C)cc2)N2CC/C=C\C[C@@H](C2=O)N(C)C(=O)CN(C)C1=O [PP1865]	36						0.083		A (a compound having 10 or more and less than 20 is denoted as A)	B (a compound having 3 or more and less than 10 is denoted as B)
CCO[C@@H]1C[C@H]2C(=O)NC(C)(C)C(=O)N(C)[C@@H](C3CCCC3)C(=O)N(CC)[C@H](C(=O)N3CCOCC3)CC(=O)N(C)[C@@H](CC(C)C)C(=O)N[C@@H]([C@@H](C)CC)C(=O)N(C)CC(=O)N(C)[C@H]3CCCCCN(C3=O)[C@@H](Cc3ccc(C(F)(F)F)cc3)C(=O)N(C)CC(=O)N[C@@H](CCc3cc(F)c(C(F)(F)F)c(F)c3)C(=O)N2C1 [PP0958]	1040	B (a compound having 3 or more and less than 10 is denoted as B)	B (a compound having 3 or more and less than 10 is denoted as B)					7.5		
CC[C@H](C)[C@@H]1NC(=O)[C@H](CC2CCCC2)N(C)C(=O)C[C@@H](C(=O)N(C)C)N(C)C(=O)[C@H](C2CCCC2)N(C)C(=O)C2(CCC2)NC(=O)[C@@H]2C[C@@H](C(F)(F)F)CN2C(=O)[C@H](CCc2cc(F)c(C(F)(F)F)c(F)c2)NC(=O)CN(C)C(=O)[C@H](Cc2ccc(F)cc2)N2CC/C=C\C[C@@H](C2=O)N(C)C(=O)CN(C)C1=O [PP1508]	28.1						0.15		A (a compound having 10 or more and less than 20 is denoted as A)	A (a compound having 10 or more and less than 20 is denoted as A)
CC[C@H](C)[C@@H]1NC(=O)[C@H](CC(C)C)N(C)C(=O)C[C@@H](C(=O)N2CCOCC2)N(C)C(=O)[C@H](C2CCCC2)N(C)C(=O)C2(CCCC2)NC(=O)[C@@H]2CCCN2C(=O)[C@H](CCc2ccc(C(F)(F)F)c(Cl)c2)NC(=O)CN(C)C(=O)[C@H](Cc2ccc(C(F)(F)F)cc2)N(CCC(C)(C)C)C(=O)CN(C)C(=O)CN(C)C1=O [PP0127] ([NMeL]I[Sar][Sar][X6][Sar][hPhe(3-Cl-4-CF3)]P[Ac5c][NMeGly(cPent)][NMeD]-Morpholide; lactam N-11)	25.3	C (A compound having a KD ratio of 0.1 or more and less than 3 is denoted as C)	C (A compound having a KD ratio of 0.1 or more and less than 3 is denoted as C)	0.92						
